Assay [1] concerns H9c2. The assay can be described thus: Antioxidant activity against H2O2-induced oxidative stress in rat H9c2 cells assessed as cell viability at 5 uM pretreated with compounds for 18 hrs followed by H2O2 stimulation for 24 hrs by MTT assay. The format is functional, cell-based. The settings on record: time 42.0 hrs. For orientation: Formazan colour is commonly taken as a measure of viable cells.

The subject of assay [2] is H9c2. The assay can be described thus: Inhibition of H2O2-induced oxidative stress in rat H9c2 cells assessed as reduction intracellular ROS level pretreated with compounds for 18 hrs followed by H2O2 stimulation for 2 hrs by DCFH-DA based fluorescence microscopic analysis. The format is functional, cell-based. Particulars: dose 1.25-5 µM, time 20.0 hrs.
In assay [3] the test system is H9c2. The assay can be described thus: Upregulation of HO-1 protein expression in rat H9c2 cells incubated for 18 hrs by Western blot analysis. The format is functional, cell-based. Particulars: dose 0.625-2.5 µM.
In assay [4] the test system is H9c2. The assay can be described thus: Cytoprotective activity against high glucose-induced oxidative stress in rat H9c2 cells assessed as inhibition of cell viability pretreated with compounds for 18 hrs followed by H2O2 stimulation for 24 hrs by MTT assay. The format is functional, cell-based. Particulars: dose 0.625-5 µM, time 42.0 hrs.
In assay [5] the test system is H9c2. The assay can be described thus: Activation of Nrf2 nuclear translocation in rat H9c2 cells assessed as increase in accumulation of Nrf2 in nucleus at 10 uM incubated for 6 hrs by DAPI staining based fluorescence microscopic analysis. The format is cell-based. The settings on record: filed as activator.
The test system of assay [6] is H9c2. The assay can be described thus: Cytoprotective activity against H2O2-induced oxidative stress in rat H9c2 cells assessed as inhibition of cell viability pretreated with compounds for 18 hrs followed by H2O2 stimulation for 24 hrs by MTT assay. The format is functional, cell-based. The settings on record: dose 0.625-5 µM, time 42.0 hrs.
The subject of assay [7] is H9c2. The assay can be described thus: […] of H2O2-induced oxidative stress in rat H9c2 cells assessed as decrease in MDA level pretreated with compounds for 18 hrs followed by H2O2 stimulation for 2 hrs by MDA assay. Particulars: dose 1.25-5 µM, time 20.0 hrs. The format is functional, cell-based.
Assay [8] has as its system H9c2. The assay can be described thus: Cytoprotective activity against H2O2-induced rat H9c2 cells assessed as reversal of colony formation inhibition by colony formation assay. The format is functional, cell-based. The settings on record: dose 1.25-5 µM.
In assay [9] the test system is H9c2. The assay can be described thus: Downregulation of Nrf2 expression in rat H9c2 cells transfected with Nrf2 siRNA at 0.625 uM pretreated with compound for 18 hrs followed by H2O2 stimulation for 24 hrs by Western blot analysis. The format is functional, cell-based. Particulars: time 42.0 hrs. On the technique in general: A western blot detects proteins with antibodies after separation by electrophoresis.

Active and inactive are the calls of the source. No cut-off for these calls is given here.

With `COc1ccccc1[C@H]1CN(C)C2(C(=O)Nc3ccccc32)[C@H]1C(=O)c1ccc(O)c(O)c1` (some centres undefined), the outcome with H9c2 [1] was Active.
Take `COc1ccc(OC)c([C@H]2CN(C)[C@]3(C(=O)c4cccc5cccc3c45)[C@H]2C(=O)c2ccc(O)c(O)c2)c1`: the result in the assay with H9c2 [1] was Active.
Turning to `COc1ccccc1[C@H]1CN(C)C2(C(=O)Nc3ccc(F)cc32)[C@H]1C(=O)c1ccc(O)c(O)c1` (some centres undefined), the result in the assay with H9c2 [1] was Active.
On the same count and under the same terms, the entry for `COc1ccc(OC)c([C@H]2CN(C)C3(C(=O)Nc4ccc(OC)cc43)[C@H]2C(=O)c2ccc(O)c(O)c2)c1` (some centres undefined) is “Active”; for `COc1ccccc1[C@H]1CN(C)C2(C(=O)Nc3ccc(Br)cc32)[C@H]1C(=O)c1ccc(O)c(O)c1` (some centres undefined) it is “Active”.
On to `COc1ccc(OC)c([C@H]2CN(C)C3(C(=O)Nc4ccc(Br)cc43)[C@H]2C(=O)c2ccc(O)c(O)c2)c1` (some centres undefined), for which the outcome with H9c2 [1] was Active.
Same read-out and setting: as for `COc1ccccc1[C@H]1CN(C)C2(C(=O)Nc3ccc(C)cc32)[C@H]1C(=O)c1ccc(O)c(O)c1` (some centres undefined), the entry is “Active”; as for `COc1ccc(OC)c([C@H]2CN(C)C3(C(=O)Nc4ccc(C)cc43)[C@H]2C(=O)c2ccc(O)c(O)c2)c1` (some centres undefined), “Active”; as for `COc1ccccc1[C@H]1CN(C)C2(C(=O)Nc3ccc(Cl)cc32)[C@H]1C(=O)c1ccc(O)c(O)c1` (some centres undefined), “Active”.
The same measure, in the same setting: as for `COc1ccccc1/C=C/C(=O)c1ccc(O)c(O)c1`, the entry is “Active”; as for `COc1ccc(OC)c(/C=C/C(=O)c2ccc(O)c(O)c2)c1`, “Active”.
Same read-out and setting: as for `COc1ccc(OC)c([C@H]2CN(C)C3(C(=O)Nc4ccc(Cl)cc43)[C@H]2C(=O)c2ccc(O)c(O)c2)c1` (some centres undefined), the entry is “Active”; as for `COc1ccc(OC)c([C@H]2CN(C)C3(C(=O)Nc4ccc(F)cc43)[C@H]2C(=O)c2ccc(O)c(O)c2)c1` (some centres undefined), “Active”.
Turning to `COc1ccc(OC)c([C@H]2CN(C)C3(C(=O)Nc4ccccc43)[C@H]2C(=O)c2ccc(O)c(O)c2)c1` (some centres undefined), the inhibition result in the assay on H9c2 [2] is “Dose-dependent-effect”. In addition, the Activity entry with H9c2 [3], in the assay with H9c2 [4], in the assay on H9c2 [6], in the assay with H9c2 [7] and in the assay with H9c2 [8] was “Dose-dependent-effect” in each case. Also, the outcome in the assay with H9c2 [5], in the assay on H9c2 [1] and in the assay with H9c2 [9] was Active.
As to `COc1ccccc1[C@H]1CN(C)[C@]2(C(=O)c3cccc4cccc2c34)[C@H]1C(=O)c1ccc(O)c(O)c1`, the outcome in the assay on H9c2 [1] was Active.
As for `COc1ccc2c(c1)C1(C(=O)N2)[C@@H](C(=O)c2ccc(O)c(O)c2)[C@@H](c2ccccc2OC)CN1C` (some centres undefined), the inhibition entry in the assay on H9c2 [2] is “Dose-dependent-effect”. For the same compound, the Activity entry with H9c2 [4], in the assay on H9c2 [6], in the assay with H9c2 [7] and with H9c2 [8] was “Dose-dependent-effect” in each case. The result in the assay with H9c2 [1] was Active.

Values taken from ChEMBL document CHEMBL6109033, “Design and synthesis of novel antioxidants derived from chalcones and their protective effects on cardiomyocytes by activating Nrf2/HO-1 pathway” (Bioorg Med Chem Lett, 2025).
